Patent US20240271184A1, “LOW PH COMPOSITION AND METHOD FOR S[…] ACIDS IN BIOLOGICAL SAMPLES” (priority 2021, published 2024)

Legend:
[1] = tested on: nucleases in saliva samples; type: biochemical, human; conditions: for degradation of RNA in saliva samples obtained from nuclease-rich donors: pH 5.2; for RNA stability and RIN as pH decreased: pH 5; for rRNA doublet integrity and RIN in saliva: pH 4.71; for rRNA doublet and RIN of spiked RNA in saliva: T2
[2] = Solubility of salts in the present composition; conditions: 4% SDS/100 mM CDTA/10 mM ATA/10 mg/mL PAAc
[3] = tested on: RNAse activity in saliva samples; assay: Nuclease assay (RNAseAlert) in saliva mixed 1:1 with formulation; type: biochemical, human; conditions: ATA 5 mM final; PAAc at pH 4.7; CDTA when ATA was present; saliva 1:1
[4] = tested on: nucleases in stool samples; type: biochemical, human; conditions: pH 4.7

O[C@H](CS)[C@H](O)CS (racemic) [dithiothreitol]
degradation of RNA in saliva samples obtained from nuclease-rich donors [1]: Degradation of RNA

ribonucleoside vanadyl complexes
degradation of RNA in saliva samples obtained from nuclease-rich donors [1]: Degradation of RNA

N#CS.N=C(N)N [GTC, guanidinium thiocyanate]
relative effectiveness for stabilizing RNA at low pH [1]: more effective than GuHCl | RNA stability and RIN as pH decreased [1]: surprising improvement in RNA stability and corresponding increase in RIN

O=C(O)CCP(CCC(=O)O)CCC(=O)O [tris(2-carboxyethyl)phosphine]
degradation of RNA in saliva samples obtained from nuclease-rich donors [1]: Degradation of RNA

sodium lauroyl sarcosinate [Sarkosyl]
rRNA doublet integrity and RIN in saliva [1]: doublet was degraded and the RIN was significantly reduced

N[C@H]1C(O)O[C@H](COP(=O)(O)O)[C@@H](O)[C@@H]1O (some centres unmarked) [glucosamine 6-phosphate]
degradation of RNA in saliva samples obtained from nuclease-rich donors [1]: Degradation of RNA

O=C(O)c1cc(SSc2ccc([N+](=O)[O-])c(C(=O)O)c2)ccc1[N+](=O)[O-] [5,5-dithio-bis-(2-nitrobenzoic acid)]
degradation of RNA in saliva samples obtained from nuclease-rich donors [1]: Degradation of RNA

[Cl-].[K+] [KCl]
solubility in the present composition [2]: solubility issues

O=C(O)c1cc2cccc([N+](=O)[O-])c2[nH]1 [7-nitroindole-2-carboxylic acid]
degradation of RNA in saliva samples obtained from nuclease-rich donors [1]: Degradation of RNA

CCCCCCCCCCCCCCCC[N+](C)(C)C.[Br-] [CTAB, Cetyltrimethylammonium bromide]
rRNA doublet integrity and RIN in saliva [1]: doublet was degraded and the RIN was significantly reduced

O=S(=O)([O-])[O-].[Li+].[Li+] [Li2SO4, lithium sulphate]
rRNA doublet and RIN of spiked RNA in saliva [1]: rRNA doublet was intact and the RIN was high

[Cl-].[Li+] [LiCl, lithium chloride]
rRNA doublet and RIN of spiked RNA in saliva [1]: rRNA doublet was intact and the RIN was high

Cc1ccc(S(=O)(=O)O)cc1.[Na] [sodium p-toluenesulfonate]
degradation of RNA in saliva samples obtained from nuclease-rich donors [1]: Degradation of RNA

CCCCCCCCCCCCOS(=O)(=O)[O-].[Na+] [SDS, sodium dodecyl sulfate]
rRNA doublet integrity and RIN in saliva [1]: able to preserve the integrity of rRNA

O=S(=O)(O)c1cc(O)c2c(O)c(/N=N/c3cccc4ccccc34)c(S(=O)(=O)O)cc2c1 [pontacyl violet 6R]
degradation of RNA in saliva samples obtained from nuclease-rich donors [1]: Degradation of RNA

O=C(O)CN(CC(=O)O)C1CCCCC1N(CC(=O)O)CC(=O)O (centres unmarked) [CDTA, 1,2-cyclohexanediaminetetraacetic acid]
effect on RNAse activity of addition to guanidinium salt-based compositions [3]: minimal effect on RNAse activity | RIN and rRNA doublet of spiked RNA in stool [4]: RIN values increased and rRNA doublet remained intact

O=C(O[C@@H]1Cc2c(O)cc(O)cc2O[C@@H]1c1cc(O)c(O)c(O)c1)c1cc(O)c(O)c(O)c1 [EGCG, epigallocatechin gallate]
degradation of RNA in saliva samples obtained from nuclease-rich donors [1]: did not prevent degradation of RNA

[Cl-].[Na+] [NaCl, sodium chloride]
rRNA doublet and RIN of spiked RNA in saliva [1]: rRNA doublet was intact and the RIN was high

OCCS [β-2-mercaptoethanol]
degradation of RNA in saliva samples obtained from nuclease-rich donors [1]: Degradation of RNA

Cl.N=C(N)N [GuHCl, guanidinium hydrochloride]
RNA stability and RIN as pH decreased [1]: surprising improvement in RNA stability and corresponding increase in RIN

B1: recombinant human placental RNAse inhibitor (protein, UniProt P13489 2-461, looked up)
Ribonuclease inhibitor: SLDIQSLDIQCEELSDARWAELLPLLQQCQVVRLDDCGLTEARCKDISSALRVNPALAELNLRSNELGDVGVHCVLQGLQTPSCKIQKLSLQNCCLTGAGCGVLSSTLRTLPTLQELHLSDNLLGDAGLQLLCEGLLDPQCRLEKLQLEYCSLSAASCEPLASVLRAKPDFKELTVSNNDINEAGVRVLCQGLKDSPCQLEALKLESCGVTSDNCRDLCGIVASKASLRELALGSNKLGDVGMAELCPGLLHPSSRLRTLWIWECGITAKGCGDLCRVLRAKESLKELSLAGNELGDEGARLLCETLLEPGCQLESLWVKSCSFTAACCSHFSSVLAQNRFLLELQISNNRLEDAGVRELCQGLGQPGSVLRVLWLADCDVSDSSCSSLAATLLANHSLRELDLSNNCLGDAGILQLVESVRQPGCLLEQLVLYDIYWSEEMEDRLQALEKDKPSLRVIS
degradation of RNA in saliva samples obtained from nuclease-rich donors [1]: Degradation of RNA
